Earlier results in patent publication US11612885B2, “Methods, compositions and kits useful for pH gradient cation exchange chromatography” (WATERS TECHNOLOGIES CORPORATION, priority 2018, dated 2023).

details: buffer salts used in the Examples

pKa1 | pKa2 | Structure (SMILES)
3.1 | 8.1 | NCC(=O)NCC(=O)O [Gly-Gly, 2-[(2-Aminoacetyl)amino] acetic acid]
2.4 | 8.1 | NCC(=O)O [Gly, Aminoethanoic acid]
6.9 |  | NC(=O)CNCCS(=O)(=O)O [ACES, 2-(carbamoylmethylamino)ethanesulfonic acid]
4.1 | 5.5 | O=C(O)CCC(=O)O [Succinic Acid, 1,4-butandioic acid]
8.8 |  | CC(N)(CO)CO [AMPD, 2-amino-2-methyl-1,3-propanediol]

Second part, the molecule before the results:

Structure (SMILES) | pKa1 | pKa2
CC(C)(N)CO [AMP, 2-amino-2-methyl-1-propanol] | 9.7 | 
c1c[nH]cn1 [Imidazole, 1,3-diazacyclopenta-2,4-diene] | 7.0 | 
OCC(CO)(CO)NCCCNC(CO)(CO)CO [BIS-TRIS Propane, 1,3-bis(tris(hydroxymethyl)methylamino)propane] | 6.8 | 9.1
O=S(=O)(O)CCCNC1CCCCC1 [CAPS, 3-(Cyclohexylamino)-1-propanesulfonic acid] | 10.4 | 

details: background statement; exposure

Structure (SMILES) | known toxicity
C1CNCCN1 [Piperazine, 1,4-Diazinane] | acute respiratory and skin irritation as well as organ damage with prolonged exposure
